Assay results: publication PMC3353862
In brackets after ≈: the same amount, converted by molar mass.

Tests used:
H. influenzae = experiment: Broth microdilution MIC testing; type: cell-based, Haemophilus influenzae; conditions: for MIC: Haemophilus influenzae, read-out: MIC H. flu; for MIC H. flu: H. influenzae
E. coli tolC mutants = experiment: Broth microdilution MIC testing; type: cell-based, Escherichia coli; conditions: for MIC: Escherichia coli, read-out: MIC E. coli tolC; for MIC E. coli tolC: E. coli tolC mutants
M. catarrhalis = experiment: Broth microdilution MIC testing; type: cell-based, Moraxella catarrhalis; conditions: for MIC: Moraxella catarrhalis
S. aureus = experiment: Broth microdilution MIC testing; type: cell-based, Staphylococcus aureus; conditions: for MIC: Staphylococcus aureus, read-out: MIC S. aureus
S. pneumoniae = experiment: Broth microdilution MIC testing; type: cell-based, Streptococcus pneumoniae; conditions: for MIC: Streptococcus pneumoniae, read-out: MIC S. pneumo; for MIC S. pneumo: S. pneumoniae
E. faecalis = experiment: Broth microdilution MIC testing; type: cell-based, Enterococcus faecalis; conditions: for MIC: Enterococcus faecalis, read-out: MIC E. fae; for MIC E. fae: E. faecalis
panel of bacteria = experiment: Antibacterial activity against the panel of bacteria (MIC, overall); type: cell-based; conditions: for antibacterial activity: panel of bacteria; as to MIC (antibacterial activity grade): key: +: poor; ++: moderate; +++: good antibacterial activity
[1] = system: E. coli modified with PMBN; experiment: Broth microdilution MIC testing; type: cell-based, Escherichia coli; conditions: for MIC: Escherichia coli, read-out: MIC E. coli +PMBP; for MIC E. coli +PMBP: E. coli modified with PMBN
[2] = system: bacterial protein synthesis (aminoacylation/translation system); experiment: aminoacylation/translation (A/T) assay; type: biochemical; conditions: for IC50: A/T assay, Table 1, read-out: IC50; for fold improvement in the IC50: relative to the original two compounds

Row | Structure (SMILES) | MIC (H. influenzae) [µg/mL] | MIC (E. coli tolC mutants) [µg/mL] | MIC (M. catarrhalis) [µg/mL] | MIC (S. aureus) [µg/mL] | MIC (S. pneumoniae) [µg/mL] | MIC (E. faecalis) [µg/mL] | antibacterial activity (panel of bacteria) | MIC [1] [µg/mL] | IC50 [2] [µM] | MIC H. flu (H. influenzae) [µg/mL] | MIC E. coli tolC (E. coli tolC mutants) [µg/mL] | MIC M. cat (M. catarrhalis) [µg/mL] | MIC S. aureus (S. aureus) [µg/mL] | MIC S. pneumo (S. pneumoniae) [µg/mL] | MIC E. fae (E. faecalis) [µg/mL] | MIC E. coli +PMBP [1] [µg/mL] | fold improvement in the IC50 [2] | MIC (antibacterial activity grade) (panel of bacteria; Table 2) | biochemical activity in the A/T assay [2] | MIC (antibacterial activity grade) (panel of bacteria; Table 3)
1 | Oc1cccc(CN2CCc3nc(-c4ccccn4)nc(O)c3C2)c1 [Compound 321526] | > 128 | > 128 | 64 (≈ 191 µM) | > 128 | > 128 | > 128 | little or no anti-bacterial activity | > 128 | 3.5 | – | – | – | – | – | – | – | – | – | – | –
2 | CCN(CC)Cc1cc(CN2CCc3nc(-c4ccccn4)[nH]c(=O)c3C2)ccc1OC [Compound 323193] | – | – | – | – | – | – | all antibacterial activity was lost | – | 4.1 | > 128 | > 128 | > 128 | > 128 | > 128 | > 128 | > 128 | – | – | – | –
3 | COc1cc(CN2CCc3nc(-c4ccccn4)[nH]c(=O)c3C2)ccc1OCC(N)=O [Compound 323200] | – | – | – | – | – | – | MIC was above maximum testing concentrations for the entire panel of bacteria | – | 0.4 | > 128 | > 128 | > 128 | > 128 | > 128 | > 128 | > 128 | three to sevenfold | – | – | –
4 | CN(C)Cc1ccc(CN2CCc3nc(-c4ccccn4)[nH]c(=O)c3C2)cc1 [Compound 323201] | – | – | – | – | – | – | all antibacterial activity was lost | – | 2.1 | > 128 | > 128 | > 128 | > 128 | > 128 | > 128 | > 128 | – | – | – | –
5 | CN(C)c1ccc(CN2CCc3nc(-c4ccccn4)[nH]c(=O)c3C2)cc1 [Compound 323218] | – | – | – | – | – | – | – | – | 0.24 | 16 (≈ 44.3 µM) | 128 (≈ 354 µM) | 4 (≈ 11.1 µM) | > 128 | 32 (≈ 88.5 µM) | > 128 | 64 (≈ 177 µM) | five and tenfold | + | – | –
6 | COc1cc(CN2CCc3nc(-c4ccccn4)[nH]c(=O)c3C2)cc(OC)c1OC [Compound 323221] | – | – | – | – | – | – | abolished both biochemical and microbiological activities | – | > 300 | > 128 | > 128 | > 128 | > 128 | > 128 | > 128 | > 128 | – | – | abolished both biochemical and microbiological activities | –
7 | O=c1[nH]c(-c2ccccn2)nc2c1CN(Cc1cc3c(cc1Cl)OCO3)CC2 [Compound 323227] | – | – | – | – | – | – | – | – | 0.37 | 32 (≈ 80.6 µM) | 64 (≈ 161 µM) | 8 (≈ 20.2 µM) | > 128 | 64 (≈ 161 µM) | > 128 | > 128 | three to sevenfold | + | – | –
8 | CC(C)Oc1cccc(CN2CCc3nc(-c4ccccn4)[nH]c(=O)c3C2)c1 [Compound 323229] | – | – | – | – | – | – | – | – | 0.53 | 8 (≈ 21.3 µM) | 16 (≈ 42.5 µM) | 0.5 (≈ 1.33 µM) | 64 (≈ 170 µM) | 8 (≈ 21.3 µM) | 64 (≈ 170 µM) | 16 (≈ 42.5 µM) | – | ++ | – | –
9 | Oc1nc(-c2ccccn2)nc2c1CCN(Cc1ccc(Cl)cc1)C2 [Compound 323338] | 2 (≈ 5.67 µM) | 4 (≈ 11.3 µM) | ≤ 0.12 | 16 (≈ 45.3 µM) | 4 (≈ 11.3 µM) | 16 (≈ 45.3 µM) | – | 8 (≈ 22.7 µM) | 64.4 | – | – | – | – | – | – | – | – | – | – | +++
10 | O=c1[nH]c(-c2ccccn2)nc2c1CN(Cc1cc(Cl)cc(Cl)c1)CC2 [Compound 323339] | – | – | – | – | – | – | – | – | 19 | 8 (≈ 20.7 µM) | 2 (≈ 5.16 µM) | ≤0.12 | 32 (≈ 82.6 µM) | 4 (≈ 10.3 µM) | 64 (≈ 165 µM) | 2 (≈ 5.16 µM) | – | – | – | +++
11 | O=c1[nH]c(-c2ccccn2)nc2c1CN(Cc1cc(Cl)ccc1Cl)CC2 [Compound 323340] | – | – | – | – | – | – | good antibacterial activity | – | > 300 | 1 (≈ 2.58 µM) | 1 (≈ 2.58 µM) | ≤0.12 | 4 (≈ 10.3 µM) | 2 (≈ 5.16 µM) | 16 (≈ 41.3 µM) | 2 (≈ 5.16 µM) | – | – | no inhibitory effect | +++
12 | O=c1[nH]c(-c2ccccn2)nc2c1CN(Cc1ccc(Br)cc1)CC2 [Compound 323341] | – | – | – | – | – | – | – | – | 41.4 | 2 (≈ 5.03 µM) | 8 (≈ 20.1 µM) | ≤0.12 | 16 (≈ 40.3 µM) | 4 (≈ 10.1 µM) | 32 (≈ 80.5 µM) | 16 (≈ 40.3 µM) | – | – | – | +++
13 | O=c1[nH]c(-c2ccccn2)nc2c1CN(Cc1ccc(Cl)c(Cl)c1)CC2 [Compound 323342] | – | – | – | – | – | – | – | – | 28.9 | 2 (≈ 5.16 µM) | 4 (≈ 10.3 µM) | ≤0.12 | 32 (≈ 82.6 µM) | 2 (≈ 5.16 µM) | 32 (≈ 82.6 µM) | 16 (≈ 41.3 µM) | – | – | – | +++
14 | O=c1[nH]c(-c2ccccn2)nc2c1CN(Cc1ccc(Cl)cc1Cl)CC2 [Compound 323343] | – | – | – | – | – | – | – | – | 8.24 | 1 (≈ 2.58 µM) | 4 (≈ 10.3 µM) | ≤0.12 | 8 (≈ 20.7 µM) | 2 (≈ 5.16 µM) | 32 (≈ 82.6 µM) | 2 (≈ 5.16 µM) | – | – | – | +++
15 | O=c1[nH]c(-c2ccccn2)nc2c1CN(Cc1cccc(Cl)c1Cl)CC2 [Compound 323344] | – | – | – | – | – | – | – | – | 11.6 | 4 (≈ 10.3 µM) | 1 (≈ 2.58 µM) | ≤0.12 | 8 (≈ 20.7 µM) | 2 (≈ 5.16 µM) | 32 (≈ 82.6 µM) | 4 (≈ 10.3 µM) | – | – | – | +++
16 | Cn1c(-c2ccccn2)nc2c(c1=O)CN(Cc1ccc(Cl)cc1)CC2 [Compound 323345] | 64 (≈ 174 µM) | 128 (≈ 349 µM) | 32 (≈ 87.2 µM) | > 128 | 128 (≈ 349 µM) | > 128 | abolished most biochemical and antibacterial activities | 128 (≈ 349 µM) | > 300 | – | – | – | – | – | – | – | – | – | abolished most biochemical and antibacterial activities | –
17 | Cc1nc(-c2nc3c(c(=O)[nH]2)CN(Cc2ccc(Cl)cc2)CC3)cs1 [Compound 323356] | 64 (≈ 172 µM) | 128 (≈ 343 µM) | 8 (≈ 21.5 µM) | > 128 | 128 (≈ 343 µM) | 128 (≈ 343 µM) | slight antibacterial activity | > 128 | > 300 | – | – | – | – | – | – | – | – | – | abolished all biochemical activity | –
